Details: in presence of polyvinylpyrrolidone (PVP); data not shown

effect of PVP on break-down of 5-methyl-(6S)-tetrahydrofolic acid: accelerated the break-down
SMILES: CN1c2c(nc(N)[nH]c2=O)NC[C@@H]1CNc1ccc(C(=O)N[C@@H](CCC(=O)O)C(=O)O)cc1 [5-methyl-(6S)-tetrahydrofolic acid]

Reference: patent US11617751B2, “Pharmaceutical composition containing a tetrahydrofolic acid” (Bayer Pharma AG, priority 2006, dated 2023)
